Experimental data reported in US10168342B2, “Lipid probes and uses thereof” (THE SCRIPPS RESEARCH INSTITUTE, priority 2015, dated 2019).

Legend:
human NUCB1 = target: T1, human NUCB1 (Homo sapiens, UniProt Q02818); assay: In vitro gel-based competition of AEA-DA probe labeling of NUCB1; type: binding; details: for IC50: AEA-DA 5 μM, recombinant NUCB1 0.25 μM doped into HEK293T lysates, percent of maximal competition, read-out: IC50, blockade of AEA-DA probe labeling of NUCB1
T1 construct: made in house; host or cells: Escherichia coli BL21(DE3)
T1 sequence (Q02818 27-461): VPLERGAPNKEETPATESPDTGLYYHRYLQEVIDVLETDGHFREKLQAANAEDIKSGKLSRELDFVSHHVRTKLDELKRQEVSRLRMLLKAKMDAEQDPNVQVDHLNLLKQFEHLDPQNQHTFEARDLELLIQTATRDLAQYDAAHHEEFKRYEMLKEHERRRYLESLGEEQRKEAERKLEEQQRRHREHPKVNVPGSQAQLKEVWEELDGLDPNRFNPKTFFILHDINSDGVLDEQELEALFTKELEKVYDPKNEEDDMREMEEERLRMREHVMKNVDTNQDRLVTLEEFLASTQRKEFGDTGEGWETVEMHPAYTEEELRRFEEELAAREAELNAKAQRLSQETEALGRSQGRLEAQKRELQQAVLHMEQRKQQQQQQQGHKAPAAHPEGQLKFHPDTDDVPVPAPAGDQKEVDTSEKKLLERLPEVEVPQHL
Protocol: Human NUCB1 lacking the N-terminal signal sequence (M1-A26) was subcloned into pET45b(+) vector (Novagen) using the following PCR primers for amplification: 5′-CATCAATTGTGTGCCCCTGGAGAGAG-3′ and 5′-AGCAAGCTTTACAGATGTTGGGGCACC-3′. Following transformation of Escherichia coli strain BL21(DE3) with hNucb1ΔSSpET45b(+), a single colony was isolated and grown in Terrific Broth containing carbenicillin (100 mg/L) at 37° C. to an OD600 of 0.8. Protein expression was induced with IPTG (1.0 mM) and the cells were incubated at 20° C. with shaking overnight. After centrifugation, cells pellets were resuspended in cold buffer containing HEPES (0.05M), NaCl (0.03 M), imidazole (5.0 mM), DNase (0.1 mg/mL), MgCl2 (1.0 mM), CaCl2 (1.0 mM) and EDTA-free Complete Protease Inhibitor Cocktail and lysed using a microfluidizer. […] The suspension was applied to a column and the retained resin was washed with HEPES buffer containing 500 mM NaCl until the eluent was clean of DNA and protein (A280/260) and then with HEPES buffer containing 10 mM imidazole (5 mL/1 mL resin). Protein was then slowly eluted with HEPES buffer containing 50 mM imidazole in 1.0 mL fractions and the combined fractions containing hNUCB1 were passed through a Sephadex G-25M column to remove imidazole and concentrated in an Amicon centrifugal filter device (Millipore). These conditions produced hNUCB1 at approximately 10 mg/L of culture; however, several lower molecular weight fragments were also present in this preparation. hNUCB1 was further purified by size exclusion chromatography.
Cell lysates (1.0 mg/mL), the indicated lipid probe (2.5 or 5 μM) and, for recombinant NUCB1 competition experiments, purified hNUCB1 (250 nM) and CaCl2 (100 μM) were mixed on ice. DMSO or competitors were then added to the proteome mixture (50 μM) in 96-well plates and each sample was incubated for 15 min at 37° C. The samples were then irradiated with UV light and subjected to previously described click chemistry conditions. As before, each reaction was quenched with 4×SDS loading buffer (17 μL), and proteins were resolved using SDS-PAGE (10% acrylamide gel) and analyzed by in-gel fluorescent scanning on a Hitachi FMBIO-II flatbed fluorescence scanner. NUCB1 competition was quantitatively assessed by measuring the fluorescent intensity of the corresponding gel band using ImageJ 1.48v and normalizing this value by a non-competed gel band to control for loading differences.
Metabolite data are shown as mean±SEM (n=3-5/group). Differences between two groups were determined using Student's t test (unpaired, two-tailed) and significance was denoted for P values<0.05.

[1] = target: T2, A-DA lipid probe targets in A549 cells (Homo sapiens, UniProt O95470); assay: In situ competitive SILAC profiling with A-DA probe in (PMA-stimulated) A549 cells; details: A549 cells, A-DA probe
T2 sequence (O95470 1-568): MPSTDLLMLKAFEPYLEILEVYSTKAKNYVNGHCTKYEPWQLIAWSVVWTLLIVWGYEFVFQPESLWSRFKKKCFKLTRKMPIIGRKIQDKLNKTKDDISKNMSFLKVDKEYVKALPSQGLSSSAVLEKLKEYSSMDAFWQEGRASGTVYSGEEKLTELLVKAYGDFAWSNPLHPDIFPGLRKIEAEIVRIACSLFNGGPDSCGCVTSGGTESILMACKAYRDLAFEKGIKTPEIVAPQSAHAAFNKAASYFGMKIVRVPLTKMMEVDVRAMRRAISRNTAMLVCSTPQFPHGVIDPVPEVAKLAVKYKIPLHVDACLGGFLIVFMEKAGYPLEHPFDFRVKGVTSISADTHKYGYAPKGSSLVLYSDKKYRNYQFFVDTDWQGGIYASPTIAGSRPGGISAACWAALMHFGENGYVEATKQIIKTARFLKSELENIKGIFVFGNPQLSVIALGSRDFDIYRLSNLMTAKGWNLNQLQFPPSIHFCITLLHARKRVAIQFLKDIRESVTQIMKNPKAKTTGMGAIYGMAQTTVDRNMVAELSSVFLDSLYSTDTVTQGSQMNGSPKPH

[2] = target: A-DA lipid probe targets in A549 cells (Homo sapiens, UniProt Q14534); assay: as above; details: A549 cells, A-DA probe
[3] = target: A-DA lipid probe targets in A549 cells (Homo sapiens, UniProt P21796); assay: as above; details: A549 cells, A-DA probe
[4] = target: T3, A-DA lipid probe targets in A549 cells (Homo sapiens, UniProt O15173); assay: as above; details: A549 cells, A-DA probe
T3 sequence (O15173 1-223): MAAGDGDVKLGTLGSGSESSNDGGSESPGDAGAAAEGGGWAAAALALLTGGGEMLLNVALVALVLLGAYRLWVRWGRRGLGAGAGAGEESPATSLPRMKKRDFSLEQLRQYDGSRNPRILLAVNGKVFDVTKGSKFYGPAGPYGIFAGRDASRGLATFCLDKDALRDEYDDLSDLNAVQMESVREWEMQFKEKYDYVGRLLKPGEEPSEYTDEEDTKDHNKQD

A-DA lipid probe targets in A549 cells (Homo sapiens, UniProt P21796), sequence (P21796 whole entry): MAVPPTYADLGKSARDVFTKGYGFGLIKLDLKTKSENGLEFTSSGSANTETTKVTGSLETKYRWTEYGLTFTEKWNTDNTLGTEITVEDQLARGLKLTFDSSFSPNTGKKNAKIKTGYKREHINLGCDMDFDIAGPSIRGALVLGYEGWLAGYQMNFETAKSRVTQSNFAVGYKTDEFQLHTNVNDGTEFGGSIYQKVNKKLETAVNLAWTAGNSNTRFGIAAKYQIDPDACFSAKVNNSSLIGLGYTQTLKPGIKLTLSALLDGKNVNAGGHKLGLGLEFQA
A-DA lipid probe targets in A549 cells (Homo sapiens, UniProt Q14534), sequence (Q14534 whole entry): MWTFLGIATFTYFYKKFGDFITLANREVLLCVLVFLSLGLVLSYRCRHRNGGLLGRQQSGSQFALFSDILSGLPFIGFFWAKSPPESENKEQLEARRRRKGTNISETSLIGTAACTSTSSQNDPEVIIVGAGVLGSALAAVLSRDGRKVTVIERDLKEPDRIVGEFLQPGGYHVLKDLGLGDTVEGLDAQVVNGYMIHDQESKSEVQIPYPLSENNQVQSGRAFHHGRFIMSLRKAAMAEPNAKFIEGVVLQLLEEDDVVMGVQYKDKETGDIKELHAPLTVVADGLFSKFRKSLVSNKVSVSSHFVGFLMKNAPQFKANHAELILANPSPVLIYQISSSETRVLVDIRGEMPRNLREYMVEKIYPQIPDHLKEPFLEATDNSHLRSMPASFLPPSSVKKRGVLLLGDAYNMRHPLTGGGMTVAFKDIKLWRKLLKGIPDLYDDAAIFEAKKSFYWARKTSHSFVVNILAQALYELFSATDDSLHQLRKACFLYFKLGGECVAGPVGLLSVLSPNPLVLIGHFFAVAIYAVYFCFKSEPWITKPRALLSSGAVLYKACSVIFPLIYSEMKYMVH

CCCCC/C=C\C/C=C\C/C=C\C/C=C\CCCC(=O)NCCO [AEA, anandamide, reference compound]
competition of AEA-DA probe labeling of recombinant NUCB1 by lipids (human NUCB1; AEA-DA 5.0 μM, lipids 20×, NUCB1-transfected HEK293T lysates): blocked

O=C(/C=C/c1cccnc1)NCCCCC1CCN(C(=O)c2ccccc2)CC1 [FK-866, reference compound]
SILAC ratio, SGPL1 (O95470) ([1]; competitor 25 μM): 1.2
SILAC ratio, SQLE (Q14534) ([2]; competitor 25 μM): 1.6
SILAC ratio, VDAC1 (P21796) ([3]; competitor 25 μM): 1.3
SILAC ratio, PGRMC2 (Q80UU9) ([4]; competitor 25 μM): 1.2

CN1CCN(C(=O)c2c(-c3ccccc3)c3cc([N+](=O)[O-])ccc3n2C)CC1 [KML110, (1-Methyl-5-nitro-3-phenyl-1H-indol-2-yl)(4-methylpiperazin-1-yl)methanone]
IC50 (human NUCB1): 9.6 µM

CN1CCN(C(=O)c2[nH]c3ccc([N+](=O)[O-])cc3c2-c2ccccc2)CC1 [MJN228, (4-Methylpiperazin-1-yl)(5-nitro-3-phenyl-1H-indol-2-yl)methanone]
IC50 (human NUCB1): 3.3 µM

C=CCN(C)CCCCCCOc1ccc(C(=O)c2ccc(Br)cc2)c(F)c1 [Ro488071]
SILAC ratio, SGPL1 (O95470) ([1]; competitor 5 μM): 1.5
SILAC ratio, SGPL1 (O95470) ([1]; competitor 50 μM): 3.0
SILAC ratio, SQLE (Q14534) ([2]; competitor 5 μM): 1.4
SILAC ratio, SQLE (Q14534) ([2]; competitor 50 μM): 3.3
SILAC ratio, VDAC1 (P21796) ([3]; competitor 5 μM): 1.4
SILAC ratio, VDAC1 (P21796) ([3]; competitor 50 μM): 3.3
SILAC ratio, PGRMC2 (Q80UU9) ([4]; competitor 5 μM): 1.6
SILAC ratio, PGRMC2 (Q80UU9) ([4]; competitor 50 μM): 2.1
